In ChEMBL document CHEMBL1275594, “Cellular pharmacokinetics of the novel biaryloxazolidinone radezolid in phagocytic cells: studies with macrophages and polymorphonuclear neutrophils” (Antimicrob Agents Chemother, 2010):

How the values were obtained:
THP-1 [1] = test: Drug level in human THP1 cells at 10 mg/L after 2 hrs in presence 250 uM efflux pump inhibitor gemfibrozil relative to control; format: ADME, cell-based; settings: thp-1, 2 h
THP-1 [2] = test: Drug level in human THP1 cells at 10 mg/L after 2 hrs in presence 10 uM efflux pump inhibitor verapamil relative to control; format: ADME, cell-based; settings: thp-1, 2 h
THP-1 [3] = test: Drug level in human THP1 cells at 10 mg/L at pH =< 6.5; format: ADME, cell-based
THP-1 [4] = test: Drug level in human THP1 cells at 10 mg/L after 2 hrs in presence of 50 uM proton inophore monesin relative to control; format: ADME, cell-based; settings: thp-1, 2 h
THP-1 [5] = test: Drug level in human THP1 cells at 50 mg/L after 30 mins at pH 6; format: ADME, cell-based; settings: thp-1, pH 6, 0.5 h
THP-1 [6] = test: Drug level in human THP1 cells at 250 mg/L after 30 mins at pH 6; format: ADME, cell-based; settings: thp-1, pH 6, 0.5 h
THP-1 [7] = test: Drug level in human THP1 cells at 50 mg/L after 2 hrs in presence of 50 uM proton inophore monesin relative to control; format: ADME, cell-based; settings: thp-1, 2 h
THP-1 [8] = test: Drug level in human THP1 cells at 250 mg/L after 2 hrs in presence of 50 uM proton inophore monesin relative to control; format: ADME, cell-based; settings: thp-1, 2 h
[9] = Half life in human PMNC at 4 mg/L; format: ADME
[10] = Half life in human THP1 cells at 4 mg/L; format: ADME, cell-based; settings: THP-1 cells
J774 [11] = test: Drug level in mouse J774 cells at 50 mg/L in presence of 50 uM proton inophore monesin relative to control; format: ADME, cell-based
THP-1 [12] = test: Drug level in human THP1 cells at 50 mg/L after 2 hrs in presence 60 mM deoxyglucose and 5 mM NaN3 relative to control; format: ADME, cell-based; settings: thp-1, 2 h
[13] = Ratio of drug level for cellular to extracellular region of human PMNC cells at 10 to 50 ug/ml; format: ADME, cell-based
THP-1 [14] = test: Drug level in human THP1 cells at 50 mg/L at pH < 7 in presence of 50 uM proton inophore monesin; format: ADME, cell-based
THP-1 [15] = test: Drug level in human THP1 cells at 50 mg/L at pH 6.5; format: ADME, cell-based; settings: thp-1, pH 6.5
J774 [16] = test: Drug level in mouse J774 cells at 50 mg/L at pH 6.5; format: ADME, cell-based; settings: j774, pH 6.5
THP-1 [17] = test: Drug level in human THP1 cells at 50 mg/L after 2 hrs in presence 250 uM efflux pump inhibitor gemfibrozil relative to control; format: ADME, cell-based; settings: thp-1, 2 h
J774 [18] = test: Drug level in mouse J774 cells at 50 mg/L after 2 hrs in presence of < 10% fetal calf serum relative to control; format: ADME, cell-based; settings: j774, 2 h
THP-1 [19] = test: Ratio of drug level for cellular to extracellular region of human THP-1 cells at 10 to 50 ug/ml; format: ADME, cell-based
[20] = Half life in mouse J774 cells at 4 mg/L; format: ADME, cell-based
THP-1 [21] = test: Drug level in human THP1 cells at 50 mg/L after 2 hrs in presence of < 10% fetal calf serum relative to control; format: ADME, cell-based; settings: thp-1, 2 h
THP-1 [22] = test: Drug level in human THP1 cells at 50 mg/L after 2 hrs in presence 10 uM efflux pump inhibitor verapamil relative to control; format: ADME, cell-based; settings: thp-1, 2 h

CC[C@H]1OC(=O)[C@H](C)[C@@H](O[C@H]2C[C@@](C)(OC)[C@@H](O)[C@H](C)O2)[C@H](C)[C@@H](O[C@@H]2O[C@H](C)C[C@H](N(C)C)[C@H]2O)[C@](C)(O)C[C@@H](C)CN(C)[C@H](C)[C@@H](O)[C@]1(C)O [AZITHROMYCIN]
Ratio (THP-1 [1]): 1.7 | Ratio (THP-1 [2]): 1.7 | Drug uptake (THP-1 [3]): 10%

CC(=O)NC[C@H]1CN(c2ccc(N3CCOCC3)c(F)c2)C(=O)O1 [LINEZOLID]
Drug uptake (THP-1 [4]): 10% | Drug uptake (THP-1 [5]): 25% | Drug uptake (THP-1 [6]): 25% | Drug uptake (THP-1 [7]): 20% | Drug uptake (THP-1 [8]): 25%

CC(=O)NC[C@H]1CN(c2ccc(-c3ccc(CNCc4cnn[nH]4)cc3)c(F)c2)C(=O)O1 [RADEZOLID]
half-life at 4 mg/L [9]: 6 min | half-life at 4 mg/L [10]: 6 min | Drug uptake (THP-1 [4]): 10% | Drug uptake (J774 [11]): 30% | Drug uptake (THP-1 [5]): 25% | Drug uptake (THP-1 [12]): Active | Drug uptake (THP-1 [6]): 25% | Ratio [13]: 8.5 | Drug uptake (THP-1 [7]): 20% | Drug uptake (THP-1 [14]): Active | Drug uptake (THP-1 [15]): Active | Drug uptake (J774 [16]): Active | Drug uptake (THP-1 [17]): Active | Drug uptake (J774 [18]): Active | Ratio (THP-1 [19]): 8.5 | half-life at 4 mg/L [20]: 6 min | Drug uptake (THP-1 [21]): Active | Drug uptake (THP-1 [8]): 25% | Drug uptake (THP-1 [22]): Active
